From patent publication EP0745595A1, “3-(3-Aryloxyphenyl)-1-(substituted methyl)-s-triazine-2,4,6-oxo or thiotrione herbicidal agents” (American Cyanamid Company, priority 1995, dated 1996)

Key:
Assay type in all cases: in vivo
[1] = test system: TRITICUM AESTIVUM, CV. APOLLO; test: Postemergence herbicidal evaluation, TRZAWO (Wheat, Winter, CV. APOLLO)
In short: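 This greenhouse postemergence test applied compounds to roughly two-week-old wheat seedlings grown in jiffy flats. The spray solution was 50/50 acetone/water with 0.5% TWEEN®20, a polyoxyethylene sorbitan monolaurate, sprayed from a nozzle run at 40 psi. After four to five weeks of standard greenhouse care, injury was scored from 0 to 9 by comparing stand, vigor, malformation, size, chlorosis and overall appearance with a control. Multiple tests were averaged.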

[2] = test system: ABUTILON THEOPHRASTI, MEDIC.; test: Postemergence herbicidal evaluation, ABUTH (Velvetleaf); details: for ABUTH, herbicide rating (0-9): rated four to five weeks after treatment, averaged
In short: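 This postemergence herbicide test used two-week-old velvetleaf seedlings grown in jiffy flats. Each compound was sprayed at 40 psi as a dispersion in 50/50 acetone/water with 0.5% TWEEN®20 surfactant. Plants then received routine greenhouse care. After four to five weeks, injury was scored visually on a 0-9 scale against a control, and replicate tests were averaged.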

[3] = test system: AMBROSIA ARTEMISIIFOLIA, L.; test: Postemergence herbicidal evaluation, AMBEL (Ragweed, Common)
In short: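 Postemergence herbicidal activity on AMBEL (common ragweed) was assessed on two-week-old seedlings grown in jiffy flats. Treatment solutions of 50/50 acetone/water with 0.5% TWEEN®20 surfactant were sprayed at 40 psi. After four to five weeks in the greenhouse, plants were scored 0-9 against a control for stand, vigor, malformation, size, chlorosis and overall appearance, with multiple tests averaged.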

[4] = test system: SETARIA VIRIDIS, (L) BEAU; test: Postemergence herbicidal evaluation, SETVI (Foxtail, Green); design: key to SETVI rating / Herbicidal effect rating, SETVI / SETVI: 0-9 visual rating scale vs untreated control; details: for SETVI, herbicide rating (0-9): rated four to five weeks after treatment, averaged
In short: (§1)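 Postemergence foliar spray at approximately 0.125–0.500 kg/ha onto two-week seedlings; greenhouse hold, then 0–9 visual injury rating after 4–5 weeks.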

[5] = test system: ZEA MAYS L.; test: Postemergence herbicidal evaluation, ZEAMX (Corn, Field); details: for ZEAMX, herbicide rating (0-9): crop, rated four to five weeks after treatment, averaged
In short: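 This greenhouse postemergence test treated corn plants about two weeks old. Compounds in a 50/50 acetone/water mixture with 0.5% TWEEN®20 were applied through a spray nozzle at 40 psi. After four to five weeks, injury was scored 0-9 against an untreated control, judging stand, vigor, malformation, size, chlorosis and overall appearance. Repeated tests were averaged.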

[6] = test system: IPOMOEA SPP.; test: Postemergence herbicidal evaluation, IPOSS (Morningglory spp.); details: for IPOSS, herbicide rating (0-9): rated four to five weeks after treatment, averaged
In short: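 In this greenhouse postemergence herbicide test on Ipomoea spp. (morningglory), compounds in 50/50 acetone/water with 0.5% TWEEN®20 were sprayed at 40 psi onto seedlings about two weeks old grown in jiffy flats. After four to five weeks, injury was scored on a 0-9 scale covering stand, vigor, malformation, size, chlorosis and overall appearance versus control, with repeat tests averaged.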

[7] = test system: ECHINOCHLOA CRUS-GALLI, (L) BEAU; test: Postemergence herbicidal evaluation, ECHCG (Barnyardgrass); design: key to ECHCG rating / Herbicidal effect rating, ECHCG / ECHCG: 0-9 visual rating scale vs untreated control
In short: as §1

[8] = test system: CASSIA OBTUSIFOLIA, L.; test: Postemergence herbicidal evaluation, CASOB (Sicklepod); design: key to CASOB rating / Herbicidal effect rating, CASOB / CASOB: 0-9 visual rating scale vs untreated control
In short: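 Ratings (0-9) reflect visual stand, vigor, malformation, size and chlorosis compared with untreated plants, assessed 4-5 weeks after postemergence spraying. Treatment was applied to roughly two-week-old seedlings at about 0.125-0.500 kg/ha in acetone/water with 0.5% Tween 20; replicate tests were averaged.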

[9] = test system: CHENOPODIUM ALBUM, L.; test: Preemergence herbicidal evaluation, CHEAL (Lambsquarters, Common); details: four to five weeks after treatment
In short: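 Seeds sown in potting soil cups, then sprayed preemergence with aqueous acetone compound solution at about 0.125 to 0.50 kg per hectare. Greenhouse-grown, rated 4–5 weeks after treatment on a 0–9 visual scale against control.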

[10] = test system: CHENOPODIUM ALBUM, L.; test: Postemergence herbicidal evaluation, CHEAL (Lambsquarters, Common)
In short: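 Postemergence herbicidal activity on Chenopodium album was tested by spraying two-week-old seedlings grown in jiffy flats with compound in acetone/water (50/50) plus 0.5% TWEEN®20, using a 40 psi nozzle. Four to five weeks after treatment, stand, vigor, malformation, size, chlorosis and overall appearance were scored 0-9 relative to controls, with repeat tests averaged.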

[11] = test system: ORYZA SATIVA, L. TEBONNET; test: Rice tolerance to post-transplant applications under flooded paddy conditions, ORYSAT (Rice, Tebonnet); details: for ORYSAT herbicidal rating (rice tolerance): post-transplant rice, rated three to four weeks after treatment; for ORYSAT: post-transplanted rice;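 for ORYSAT herbicidal rating (rice tolerance): applied to flooded soil surface three days after transplanting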
In short: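 Greenhouse pots of silt loam, each with two transplanted ten-day-old seedlings, are held under 1.5 to 3 cm of standing water. Three days later the compound is applied to the flooded surface at about 0.5, 0.25, 0.125 or 0.063 kg/ha. Damage is scored visually 0-9 after 3-4 weeks.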

## COC(=O)Cn1c(=O)n(C)c(=O)n(-c2cc(Oc3c(F)cc(C(F)(F)F)cc3Cl)ccc2F)c1=O [Compound 4, Methyl 3-{5-[(2-chloro-α,α,α,6-tetrafluoro-p-tolyl)oxy]-2-fluorophenyl}tetrahydro-5-methyl-2,4,6-trioxo-s-triazine-1(2H)-acetate]
[1]; 0.031 kg/ha
  Herbicidal effect rating, TRZAWO: 6.3
[1]; 0.063 kg/ha
  Herbicidal effect rating, TRZAWO: 7.3
[1]; 0.125 kg/ha
  Herbicidal effect rating, TRZAWO: 8.1
[1]; 0.250 kg/ha
  Herbicidal effect rating, TRZAWO: 8.2
[2]; 0.031 kg/ha
  Herbicidal effect rating, ABUTH: 8.9
[2]; 0.063 kg/ha
  Herbicidal effect rating, ABUTH: 8.9
[2]; 0.125 kg/ha
  Herbicidal effect rating, ABUTH: 9.0
[2]; 0.250 kg/ha
  Herbicidal effect rating, ABUTH: 9.0
[2]; Rate 0.125 kg/ha
  ABUTH, herbicide rating (0-9): 9.0
[2]; Rate 0.250 kg/ha
  ABUTH, herbicide rating (0-9): 9.0
[2]; Rate 0.500 kg/ha
  ABUTH, herbicide rating (0-9): 9.0
[3]; 0.031 kg/ha
  Herbicidal effect rating, AMBEL: 7.2
[3]; 0.063 kg/ha
  Herbicidal effect rating, AMBEL: 8.0
[3]; 0.125 kg/ha
  Herbicidal effect rating, AMBEL: 8.5
[3]; 0.250 kg/ha
  Herbicidal effect rating, AMBEL: 8.9
[4]; 0.031 kg/ha
  Herbicidal effect rating, SETVI: 6.9
[4]; 0.063 kg/ha
  Herbicidal effect rating, SETVI: 8.6
[4]; 0.125 kg/ha
  Herbicidal effect rating, SETVI: 9.0
[4]; 0.250 kg/ha
  Herbicidal effect rating, SETVI: 9.0
[4]; Rate 0.125 kg/ha
  SETVI, herbicide rating (0-9): 9.0
[4]; Rate 0.250 kg/ha
  SETVI, herbicide rating (0-9): 9.0
[4]; Rate 0.500 kg/ha
  SETVI, herbicide rating (0-9): 9.0
[5]; 0.031 kg/ha
  Herbicidal effect rating, ZEAMX: 8.1
[5]; 0.063 kg/ha
  Herbicidal effect rating, ZEAMX: 8.7
[5]; 0.125 kg/ha
  Herbicidal effect rating, ZEAMX: 8.9
[5]; 0.250 kg/ha
  Herbicidal effect rating, ZEAMX: 8.9
[5]; Rate 0.125 kg/ha
  ZEAMX, herbicide rating (0-9): 8.8
[5]; Rate 0.250 kg/ha
  ZEAMX, herbicide rating (0-9): 8.8
[5]; Rate 0.500 kg/ha
  ZEAMX, herbicide rating (0-9): 8.8
[6]; 0.031 kg/ha
  Herbicidal effect rating, IPOSS: 8.9
[6]; 0.063 kg/ha
  Herbicidal effect rating, IPOSS: 8.9
[6]; 0.125 kg/ha
  Herbicidal effect rating, IPOSS: 9.0
[6]; 0.250 kg/ha
  Herbicidal effect rating, IPOSS: 9.0
[6]; Rate 0.125 kg/ha
  IPOSS, herbicide rating (0-9): 9.0
[6]; Rate 0.250 kg/ha
  IPOSS, herbicide rating (0-9): 9.0
[6]; Rate 0.500 kg/ha
  IPOSS, herbicide rating (0-9): 9.0
[7]; 0.031 kg/ha
  Herbicidal effect rating, ECHCG: 3.8
[7]; 0.063 kg/ha
  Herbicidal effect rating, ECHCG: 6.0
[7]; 0.125 kg/ha
  Herbicidal effect rating, ECHCG: 8.2
[7]; 0.250 kg/ha
  Herbicidal effect rating, ECHCG: 8.9
[8]; 0.031 kg/ha
  Herbicidal effect rating, CASOB: 8.6
[8]; 0.063 kg/ha
  Herbicidal effect rating, CASOB: 8.4
[8]; 0.125 kg/ha
  Herbicidal effect rating, CASOB: 9.0
[8]; 0.250 kg/ha
  Herbicidal effect rating, CASOB: 8.4
[9]; Rate 0.125 kg/ha
  CHEAL rating: 9.0
[9]; Rate 0.250 kg/ha
  CHEAL rating: 9.0
[9]; Rate 0.500 kg/ha
  CHEAL rating: 9.0
[10]; 0.031 kg/ha
  Herbicidal effect rating, CHEAL: 7.9
[10]; 0.063 kg/ha
  Herbicidal effect rating, CHEAL: 8.8
[10]; 0.125 kg/ha
  Herbicidal effect rating, CHEAL: 8.9
[10]; 0.250 kg/ha
  Herbicidal effect rating, CHEAL: 9.0
[11]; Rate 0.063 kg/ha
  ORYSAT herbicidal rating (rice tolerance): 2.0
  ORYSAT: 2.1
[11]; Rate 0.125 kg/ha
  ORYSAT herbicidal rating (rice tolerance): 3.2
  ORYSAT: 3.6
[11]; Rate 0.250 kg/ha
  ORYSAT herbicidal rating (rice tolerance): 3.8
  ORYSAT: 3.7
[11]; Rate 0.500 kg/ha
  ORYSAT herbicidal rating (rice tolerance): 4.7
[11]; Rate 0.031 kg/ha
  ORYSAT: 1.6
